Results taken from US10519177B2, “Heterocyclic compounds and uses thereof” (Plexxikon Inc., priority 2013, dated 2019).

Legend:
[1] = molecular target: BRD4-BD1 (44-164) (Homo sapiens (Human), UniProt O60885); assay: Alphascreen binding assay BRD4-BD1; settings: BRD4(1) H4; read-out: Biochemical activity (IC50 μM) BRD4(1) H4
In short: (§1)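 In this competition format, compounds displace a biotinylated tetra-acetyl H4 peptide from E. coli-expressed human BRD4 bromodomain constructs captured on nickel chelate beads. The reaction runs at pH 7.5 with 2 mM DTT and detergent for 1 h at room temperature before a 30 min bead step.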

[2] = molecular target: BRD4-BD12 (1-477) (Homo sapiens (Human), UniProt O60885); assay: Alphascreen binding assay BRD4-BD12; settings: BRD4(1 2) H4; read-out: Biochemical activity (IC50 μM) BRD4(1 2) H4
In short: as §1

[3] = tested on: MV-4-11 cells; assay: Oncology cell growth assay MV-4-11 (CellTiter Glo); type: cell-based; settings: Homo sapiens, MV4-11, 72 h; read-out: Cell activity (IC50 μM) MV-4-11 3d-Growth
In short: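 Growth read by CellTiter Glo luminescence after 72 h compound treatment of MLL-AF4-bearing MV-4-11 cells (3000/well). Titration: 8 points, 1:3 steps, maximum 10 μM, 0.2% DMSO final. Data normalized to DMSO wells, four-parameter fit gives pIC50.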

[4] = tested on: bromodomain; assay: at least one of the bromodomain cell assays of Example 57; type: cell-based; settings: at least one of the bromodomain cell assays described in Example 57; read-out: IC50 in at least one of the bromodomain cell assays

`Cc1noc(C)c1-c1cnc2c(C#CCO)cn(C(C)c3ccccc3)c2c1` (stereo not drawn) [P-0302, 3-[6-(3,5-dimethylisoxazol-4-yl)-1-(1-phenylethyl)pyrrolo[3,2-b]pyridin-3-yl]prop-2-yn-1-ol] showed an IC50 [1] of less than 1 µM, an IC50 [2] of less than 1 µM and an IC50 [3] of less than 1 µM. It also gave an IC50 [4] of less than 10000 nM.

`Cc1noc(C)c1-c1cnc2c(I)cn(CC3CC(F)(F)C3)c2c1` [P-0303, 4-[1-[(3,3-difluorocyclobutyl)methyl]-3-iodo-pyrrolo[3,2-b]pyridin-6-yl]-3,5-dimethyl-isoxazole] was tested, and the IC50 [1] was less than 1 µM, the IC50 [2] was less than 1 µM and the IC50 [3] was less than 1 µM. For the same compound, the IC50 [4] was less than 10000 nM.

For `Cc1noc(C)c1-c1cnc2c(-c3cnn(C(F)F)c3)cn(CC3CC(F)(F)C3)c2c1` [P-0304], the IC50 [1] was less than 1 µM, the IC50 [2] was less than 1 µM and the IC50 [3] was less than 1 µM. The IC50 [4] was less than 10000 nM.

`Cc1noc(C)c1-c1cnc2c(-c3cnn(CC(F)(F)F)c3)cn(CC3CC(F)(F)C3)c2c1` [P-0305, 4-[1-[(3,3-difluorocyclobutyl)methyl]-3-[1-(2,2,2-trifluoroethyl)pyrazol-4-yl]pyrrolo[3,2-b]pyridin-6-yl]-3,5-dimethyl-isoxazole] was tested, and the IC50 [1] was less than 1 µM, the IC50 [2] was less than 1 µM and the IC50 [3] was less than 1 µM. For the same compound, the IC50 [4] was less than 10000 nM.

`Cc1noc(C)c1-c1cnc2c(Cl)cn(CC3CCC(F)(F)CC3)c2c1` [P-0306, 4-[3-chloro-1-[(4,4-difIuorocyclohexyl)methyl]pyrrolo[3,2-b]pyridin-6-yl]-3,5-dimethyl-isoxazole] was tested, and the IC50 [1] was less than 1 µM, the IC50 [2] was less than 1 µM and the IC50 [3] was less than 1 µM. It also gave an IC50 [4] of less than 10000 nM.

`Cc1noc(C)c1-c1cnc2c(Cl)cn(C(CC#N)C3CC3)c2c1` (stereo not drawn) [P-0307, 3-[3-chloro-6-(3,5-dimethylisoxazol-4-yl)pyrrolo[3,2-b]pyridin-1-yl]-3-cyclopropyl-propanenitrile] was tested, and the IC50 [1] was less than 1 µM, the IC50 [2] was less than 1 µM and the IC50 [3] was 1 to 10 µM. The IC50 [4] was less than 10000 nM.

Work on `Cc1noc(C)c1-c1cnc2c(Br)cn(C(CC#N)C3CC3)c2c1` (stereo not drawn) [P-0308, 3-[3-bromo-6-(3,5-dimethylisoxazol-4-yl)pyrrolo[3,2-b]pyridin-1-yl]-3-cyclopropxl-propanenitrile] yielded an IC50 [1] of less than 1 µM, an IC50 [2] of less than 1 µM and an IC50 [3] of less than 1 µM. For the same compound, the IC50 [4] was less than 10000 nM.

`Cc1noc(C)c1-c1cnc2c(I)cn(C(CC#N)C3CC3)c2c1` (stereo not drawn) [P-0309, 3-cyclopropyl-3-[6-(3,5-dimethylisoxazol-4-yl)-3-iodo-pyrrolo[3,2-b]pyridin-1-yl]propanenitrile] was tested, and the IC50 [1] was less than 1 µM, the IC50 [2] was less than 1 µM and the IC50 [3] was less than 1 µM. For the same compound, the IC50 [4] was less than 10000 nM.

Work on `Cc1nnn(C)c1-c1cnc2c(-c3cnn(C)c3)cn(CC3CCC(F)(F)CC3)c2c1` [P-0310, 1-[(4,4-difluorocyclohexyl)methyl]-6-(3,5-dimethyltriazol-4-yl)-3-(1-methylpyrazol-4-yl)pyrrolo[3,2-b]pyridine] yielded an IC50 [1] of less than 1 µM, an IC50 [2] of less than 1 µM and an IC50 [3] of less than 1 µM. It also gave an IC50 [4] of less than 10000 nM.

For `Cc1nnn(C)c1-c1cnc2c(-c3cnn(CC(F)(F)F)c3)cn(CC3CCC(F)(F)CC3)c2c1` [P-0311, 1-[(4,4-difluorocyclohexyl)methyl]-6-(3,5-dimethyltriazol-4-yl)-3-[1-(2,2,2-trifluoroethyl)pyrazol-4-yl]pyrrolo[3,2-b]pyridine], the IC50 [1] was less than 1 µM, the IC50 [2] was 1 to 10 µM and the IC50 [3] was less than 1 µM. For the same compound, the IC50 [4] was less than 10000 nM.

`COc1ccc(-c2cnc3ccn(CC4CCC(F)(F)CC4)c3c2)cn1` [P-0312, 1-((4,4-difluorocyclohexyl)methyl]-6-(6-methoxy-3-pyridyl)pyrrolo[3,2-b]pyridine] gave an IC50 [1] of 1 to 10 µM, an IC50 [2] of 10 to 200 µM and an IC50 [3] of 10 to 200 µM. For the same compound, the IC50 [4] was less than 10000 nM.

Work on `Cc1ccc(-c2cnc3ccn(CC4CCC(F)(F)CC4)c3c2)cn1` [P-0313, 1-[(4,4-difluorocyclohexyl)methyl]-6-(6-methyl-3-pyridyl)pyrrolo[3,2-b]pyridine] yielded an IC50 [1] of 10 to 200 µM, an IC50 [2] of less than 1 µM and an IC50 [3] of 10 to 200 µM. For the same compound, the IC50 [4] was less than 10000 nM.

`Cc1noc(C)c1-c1cnc2c(-c3cnn(C(F)F)c3)cn(C(CC#N)C3CCOCC3)c2c1` (stereo not drawn) [P-0314, 3-[3-[1-(difluoromethyl)pyrazol-4-yl]-6-(3,5-dimethylisoxazol-4-yl)pyrrolo[3,2-b]pyridin-1-yl]-3-tetrahydropyran-4-yl-propanenitrile] showed an IC50 [1] of less than 1 µM, an IC50 [2] of less than 1 µM and an IC50 [3] of less than 1 µM. It also gave an IC50 [4] of less than 10000 nM.

In the case of `Cc1noc(C)c1-c1cnc2c(-c3cnn(CC(F)(F)F)c3)cn(C(CC#N)C3CC3)c2c1` (stereo not drawn) [P-0315, 3-cyclopropyl-3-[6-(3,5-dimethylisoxazol-4-yl)-3-[1-(2,2,2-trifluoroethyl)pyrazol-4-yl]pyrrolo[3,2-b]pyridin-1-yl]propanenitrile], the IC50 [1] is reported as less than 1 µM, the IC50 [2] is reported as less than 1 µM and the IC50 [3] is reported as less than 1 µM. It also gave an IC50 [4] of less than 10000 nM.

With `Cc1noc(C)c1-c1cnc2c(-c3cnn(C)c3)cn(C(CC#N)C3CC3)c2c1` (stereo not drawn) [P-0316, 3-cyclopropyl-3-[6-(3,5-dimethylisoxazol-4-yl)-3-(1-methylpyrazol-4-yl)pyrrolo[3,2-b]pyridin-1-yl]propanenitrile] the IC50 [1] was less than 1 µM, the IC50 [2] was less than 1 µM and the IC50 [3] was less than 1 µM. The IC50 [4] was less than 10000 nM.

`Cc1noc(C)c1-c1cnc2c(-c3cnn(CC(F)(F)F)c3)cn(Cc3ccccc3)c2c1` [P-0317, 4-[1-benzyl-3-[1-(2,2,2-trifluoroethyl)pyrazol-4-yl]pyrrolo[3,2-b]pyridin-6-yl]-3,5-dimethyl-isoxazole] was tested, and the IC50 [1] was less than 1 µM, the IC50 [2] was less than 1 µM and the IC50 [3] was less than 1 µM. It also gave an IC50 [4] of less than 10000 nM.

Compound `Cc1noc(C)c1-c1cnc2c(I)cn(Cc3ccccc3)c2c1` [P-0318, 4-(1-benzyl-3-iodo-pyrrolo[3,2-b]pyridin-6-yl)-3,5-dimethyl-isoxazole] has an IC50 [1] of less than 1 µM, an IC50 [2] of less than 1 µM and an IC50 [3] of less than 1 µM. For the same compound, the IC50 [4] was less than 10000 nM.

`Cc1noc(C)c1-c1cnc2c(I)cn(Cc3ncccn3)c2c1` [P-0319, 4-[3-iodo-1-(pyrimidin-2-ylmethyl)pyrrolo[3,2-b]pyridin-6-yl]-3,5-dimethyl-isoxazole] gave an IC50 [1] of less than 1 µM, an IC50 [2] of less than 1 µM and an IC50 [3] of less than 1 µM. It also gave an IC50 [4] of less than 10000 nM.

`Cc1noc(C)c1-c1cnc2c(-c3cnn(CC(F)(F)F)c3)cn(C(C)c3ccccn3)c2c1` (stereo not drawn) [P-0320, 3,5-dimethyl-4-[1-[1-(2-pyridyl)ethyl]-3-[1-(2,2,2-trifluoroethyl)pyrazol-4-yl]pyrrolo[3,2-b]pyridin-6-yl]isoxazole] gave an IC50 [1] of less than 1 µM, an IC50 [2] of less than 1 µM and an IC50 [3] of less than 1 µM. The IC50 [4] was less than 10000 nM.

`Cc1noc(C)c1-c1cnc2c(-c3cnn(CC(F)(F)F)c3)cn(CC3(F)CCC(F)(F)CC3)c2c1` [P-0321, 3,5-dimethyl-4-(1-[(1,4,4-trifluorocyclohexyl)methyl]-3-[1-(2,2,2-trifluoroethyl)pyrazol-4-yl]pyrrolo[3,2-b]pyridin-6-yl]isoxazole] was tested, and the IC50 [1] was less than 1 µM, the IC50 [2] was 1 to 10 µM and the IC50 [3] was less than 1 µM. The IC50 [4] was less than 10000 nM.

`Cc1nnc(CCl)n1-c1cnc2[nH]ccc2c1` [P-0322, 5-[3-(chloromethyl)-5-methyl-1,2,4-triazol-4-yl]-1H-pyrrolo[2,3-b]pyridine] showed an IC50 [1] of 10 to 200 µM, an IC50 [2] of 10 to 200 µM and an IC50 [3] of 1 to 10 µM. For the same compound, the IC50 [4] was less than 10000 nM.

`Cc1onc(NC(=O)OC(C)(C)C)c1-c1cnc2ccn(CC3CCC(F)(F)CC3)c2c1` [P-0323, tert-butyl N-[4-[1-[(4,4-difluorocyclohexyl)methyl]pyrrolo[3,2-b]pyridin-6-yl]-5-methyl-isoxazol-3-yl]carbamate] was tested, and the IC50 [1] was 10 to 200 µM, the IC50 [2] was less than 1 µM and the IC50 [3] was 10 to 200 µM. It also gave an IC50 [4] of less than 10000 nM.

`Cc1noc(C)c1-c1cnc2c(-c3ccc(C(=O)O)cc3)cn(CC3CCC(F)(F)CC3)c2c1` [P-0324, 4-[1-[(4,4-difluorocyclohexyl)methyl]-6-(3,5-dimethylisoxazol-4-yl)pyrrolo[3,2-b]pyridin-3-yl]benzoic acid] gave an IC50 [1] of less than 1 µM, an IC50 [2] of less than 1 µM and an IC50 [3] of less than 1 µM. It also gave an IC50 [4] of less than 10000 nM.

`Cc1noc(C)c1-c1cnc2c(-c3cnn(C)c3)cn(Cc3ncccn3)c2c1` [P-0325, 3,5-dimethyl-4-[3-(1-methylpyrazol-4-yl)-1-(pyrimidin-2-ylmethyl)pyrrolo[3,2-b]pyridin-6-yl]isoxazole] gave an IC50 [1] of less than 1 µM, an IC50 [2] of less than 1 µM and an IC50 [3] of less than 1 µM. It also gave an IC50 [4] of less than 10000 nM.

In the case of `Cc1noc(C)c1-c1cnc2c(-c3cnn(C(F)F)c3)cn(Cc3ccccc3)c2c1` [P-0326, 4-[1-benzyl-3-[1-(difluoromethyl)pyrazol-4-yl]pyrrolo[3,2-b]pyridin-6-yl]-3,5-dimethyl-isoxazole], the IC50 [1] is reported as less than 1 µM, the IC50 [2] is reported as less than 1 µM and the IC50 [3] is reported as less than 1 µM. For the same compound, the IC50 [4] was less than 10000 nM.

Compound `Cc1noc(C)c1-c1cnc2c(-c3cnn(C)c3)cn(Cc3ccccc3)c2c1` [P-0327, 4-[1-benzyl-3-(1-methylpyrazol-4-yl)pyrrolo[3,2-b]pyridin-6-yl]-3,5-dimethyl-isoxazole] has an IC50 [1] of less than 1 µM, an IC50 [2] of less than 1 µM and an IC50 [3] of less than 1 µM. The IC50 [4] was less than 10000 nM.

`Cc1noc(N)c1-c1cnc2ccn(CC3CCC(F)(F)CC3)c2c1` [P-0328, 4-[1-[(4,4-difluorocyclohexyl)methyl]pyrrolo[3,2-b]pyridin-6-yl]-3-methyl-isoxazol-5-amine] was tested, and the IC50 [1] was less than 1 µM, the IC50 [2] was less than 1 µM and the IC50 [3] was 1 to 10 µM. The IC50 [4] was less than 10000 nM.
